Measurements published in patent publication US20250082655A1, “USE OF HETEROCYCLIC COMPOUND” (WUHAN CREATERNA SCIENCE AND TECHNOLOGY CO., LTD., priority 2022, published 2025).
Several values for one entry are separate records, joined by “and”; a condition that tells them apart may be missing. Equal values may be shown once.

Test system: citric acid-induced acute cough in guinea pigs
Test: ATP-sensitized citric acid-induced acute cough model in guinea pigs (WBP system)
Format: in vivo, guinea pig
Conditions: for Total cough count (CCnt): within 10 minutes, Mean ± SEM, N = 12; for Change rate of total cough count: versus solvent group; for average cough times decreased compared to the solvent group: decrease; for antitussive effect (in words): compared to the solvent group
Procedure: • Male Hartley guinea pigs: Beijing Vital River Laboratory Animal Technology Co., Ltd; • 250 μM ATP solution: Sigma, catalog number A2383; • 0.5 M citric acid solution: Sigma, catalog number C2404; • DSI Buxco Whole Body Plethysmography (WBP) system instrument: manufacturer DSI, serial numbers 100249, 990171; • Electronic balance: Mettler Toledo, serial number B844687071.
• Solvent (10% (v/v) E-TPGS aqueous solution, pH 7.4±0.1): TPGS was heated and melted into a liquid in a water bath. 10 mL of TPGS was taken and then added to 85 mL of deionized water, and the mixture was stirred to form a homogeneous solution. The pH was adjusted to 7.4±0.1 using an appropriate concentration of HCl/NaOH. The final volume was made up to 100 mL with deionized water, and the mixture was stirred until visually homogeneous. The pH was checked, and if necessary, adjusted to 7.4±0.1 using an appropriate concentration of HCl/NaOH.
The administration formulation was prepared under yellow light conditions.
The required mass of the compound was accurately weighed into an appropriate container, and slowly added to a suitable container containing 80% of the final volume of the solvent (10% (v/v) E-TPGS aqueous solution, pH 7.4±0.1), and the mixture was stirred until visually homogeneous. The solvent was added to 90% of the final volume, and the mixture was stirred until visually homogeneous. If necessary, the pH was adjusted to 7.3-7.6 with an appropriate concentration of HCl/NaOH. If necessary, the formulation was subjected to ultrasonic treatment. The solvent was then added to the final volume, and the mixture was stirred until a visually clear and homogeneous solution was obtained.
After the preparation of the administration formulation was completed, the administration formulation was aliquoted into daily doses and stored in a refrigerator at 2-8° C., protected from light, and used within 10 days. Prior to administration, the formulation was removed from the refrigerator 30 minutes in advance, and stirred for 30 minutes at room temperature and protected from light until it reached room temperature.
Preparation of dextromethorphan: the required volume for administration was calculated based on the animal's body weight. The weighting amount of dextromethorphan (DM) was determined based on the administration volume and dose. The DM was accurately weighed and dissolved in 1×PBS (Phosphate Buffered Saline) with the calculated administration volume. The solution was mixed homogeneously by shaking until a clear solution was formed, and it was prepared freshly before use.
In the experiment, the solvent (10% (v/v) E-TPGS (Vitamin E Polyethylene Glycol Succinate)) and each test compound were administered to guinea pigs by gavage 3 hours prior to citric acid nebulization. The reference compound, dextromethorphan (DM), was administered to guinea pigs by gavage 40 minutes prior to citric acid nebulization (see Table 1 for details).
At the scheduled time, male Hartley guinea pigs (300-400 g) were placed in the respiratory volume plethysmography chamber of the DSI Buxco Whole Body Plethysmography (WBP) system. After an acclimation period of 3-5 minutes, a solution of ATP with a concentration of 250 μM was nebulized and sprayed into the chamber for 2 minutes. After a 3-minute interval, a solution of citric acid with a concentration of 0.5 M was administered for 5 minutes to induce coughing. From the start of citric acid nebulization, the WBP system recorded the total cough counts (CCnt) within 10 minutes and the cough incubation period (CIP, i.e., the time from the start of citric acid induction to the appearance of the first cough).

[1] = 30 mg/kg oral single dose 3 hours before citric acid nebulization
[2] = 30 mg/kg oral, 3 hours before citric acid nebulization
[3] = 30 mg/kg oral, 3 hours before citric acid

SMILES | Total cough count (CCnt) (63 mg/kg oral single dose 40 minutes before citric acid nebulization) | Cough incubation period (CIP) (63 mg/kg oral, 40 minutes before citric acid nebulization) | Change rate of total cough count (63 mg/kg oral, 40 minutes before citric acid) [%] | Total cough count (CCnt) [1] | Cough incubation period (CIP) [2] | Change rate of total cough count [3] [%] | average cough times decreased compared to the solvent group (30 mg/kg oral) [%] | antitussive effect (in words) | Total cough count (CCnt) (3 mg/kg oral single dose 3 hours before citric acid nebulization) | Cough incubation period (CIP) (3 mg/kg oral, 3 hours before citric acid nebulization) | Change rate of total cough count (3 mg/kg oral, 3 hours before citric acid) [%] | average cough times decreased compared to the solvent group (3 mg/kg oral) [%] | Total cough count (CCnt) (10 mg/kg oral single dose 3 hours before citric acid nebulization) | Cough incubation period (CIP) (10 mg/kg oral, 3 hours before citric acid nebulization) | Change rate of total cough count (10 mg/kg oral, 3 hours before citric acid) [%] | average cough times decreased compared to the solvent group (10 mg/kg oral) [%]
COc1ccc2c(c1)[C@]13CCCC[C@@H]1[C@H](C2)N(C)CC3 [DM, dextromethorphan, reference compound] | 12.17 times and 12.17 ± 2.76 ^c times | 291.00 s and 291.00 ± 41.65 s | −43.41 | – | – | – | – | – | – | – | – | – | – | – | – | –
O=c1c(-c2ccc(O)cc2)coc2cc(O)cc(O)c12 [Compound 3-1] | – | – | – | 11.83 ± 2.02 times | 281.67 s and 281.67 ± 37.84 s | −44.96 | 44.96 | good antitussive efficacy | – | – | – | – | – | – | – | –
O=c1[nH]ncc(N2CCc3c(ncnc3Oc3ccc(F)cc3C(F)(F)F)C2)c1Cl [Compound 2-1] | – | – | – | 12.75 ± 1.86 times | 290.08 s and 290.08 ± 43.61 s | −40.70 | 40.70 | good antitussive efficacy | – | – | – | – | – | – | – | –
O=C(c1ccc(F)cc1C(F)(F)F)c1cnc2n1CCN(c1cnn(COP(=O)(O)O)c(=O)c1Cl)C2 [Compound 1, (5-chloro-4-(3-(4-fluoro-2-(trifluoromethyl)benzoyl)-5,6-dihydroimidazo[1,2-a]pyrazin-7(8H)-yl)-6-oxopyridazin-1(6H)-yl)methyl Dihydrogen Phosphate] | – | – | – | 10.73 times and 10.73 ± 1.71 times | 293.75 s and 293.75 ± 33.66 s | −50.11 | 50.11 | good antitussive effect | 17.00 times and 17.00 ± 2.11 times | 234.42 s and 234.42 ± 24.11 s | −20.93 | 20.93 | 13.42 times and 13.42 ± 1.18 times | 283.67 s and 283.67 ± 42.98 s | −37.60 | 37.60
